Data on three compounds can be found in patent US7037922B1, “Aryl fused 2,4-disubstituted pyridines: NK3 receptor ligands” (Neurogen Corporation, priority 2000, dated 2006).

Structures are written as SMILES.

In general, IC50 refers to the midpoint of a concentration-inhibition curve. The low end stands for greater potency in that assay, the high end for weaker potency in that assay.

The test concerns the target T1, NK-3 receptor (Homo sapiens, UniProt P29371).
T1 construct: expressed in transfected cells; total cellular membranes used
T1 sequence (P29371 1-465): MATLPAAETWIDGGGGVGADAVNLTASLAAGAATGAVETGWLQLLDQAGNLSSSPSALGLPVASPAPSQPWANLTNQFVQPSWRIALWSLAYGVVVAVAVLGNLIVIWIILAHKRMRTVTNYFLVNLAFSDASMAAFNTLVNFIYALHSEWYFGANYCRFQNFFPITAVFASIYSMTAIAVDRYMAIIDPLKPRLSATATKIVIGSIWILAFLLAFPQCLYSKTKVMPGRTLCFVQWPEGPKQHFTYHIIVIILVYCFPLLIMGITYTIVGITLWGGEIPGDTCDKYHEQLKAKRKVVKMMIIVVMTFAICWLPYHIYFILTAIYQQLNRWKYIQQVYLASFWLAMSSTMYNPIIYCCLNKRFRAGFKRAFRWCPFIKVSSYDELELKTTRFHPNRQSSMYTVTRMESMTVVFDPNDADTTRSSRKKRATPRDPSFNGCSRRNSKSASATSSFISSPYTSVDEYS
In words: NK3 receptor binding assay (displacement of 125I-methylPhe7-neurokinin B). The note with it: membranes of Chinese hamster ovary cells expressing cloned human NK-3 receptor; 0.15 nM 125I-methylPhe7-neurokinin B; 2 hours at 4° C. The procedure:
The following assay is a standard assay of NK3 receptor binding, which is used to determine the NK-3 receptor binding affinity of compounds.
Assays are performed as described in Krause et al (Proc. Natl. Acad. Sci. USA 94: 310–315, 1997). The NK-3 receptor complementary DNA was cloned from human hypothalamic RNA using standard procedures. The receptor cDNA was inserted into the expression vector pM^2 to transfect the mammalian Chinese hamster ovary cell line, and a stably expressing clonal cell line was isolated, characterized and used for the current experiments. Cells are grown in minimal essential medium alpha containing 10% fetal bovine serum and 0.8 mg G418 per ml. Cells were liberated from cell culture plates with No-zyme (PBS base, JRH Biosciences), and harvested by low speed centrifugation. The cell pellet was homogenized in TBS (0.05 m TrisHCl, 120 mM NaCl, pH 7.4) with a Polytron homogenizer at setting 5 for 20 seconds, and total cellular membranes were isolated by centrifugation at 47,500×g for 10 minutes. The membrane pellet was resuspended by homogenization with the Polytron as above, and the membranes were isolated by centrifugation at 47,500×g for 10 minutes. This final membrane pellet was resuspended in TBS at a protein concentration of 350 μg/ml.
Receptor binding assays contain a total volume of 200 μl containing 50 μg membrane protein, 0.15 nM ^125I-methylPhe^7-neurokinin B, drug or blocker in TBS containing 1.0 mg/ml bovine serum albumen, 0.2 mg/ml bacitracin, 20 ug/ml leupeptin and 20 μg/ml chymostatin. Incubations are carried out for 2 hours at 4° C., and the membrane proteins are harvested by passing the incubation mixture by rapid filtration over presoaked GF/B filters to separate bound from free ligand. […] After filtration of the incubation mixture, filters are rinsed 4 times with ice-cold TBS containing 0.01% sodium dodecyl sulfate and counted in a β-plate scintillation counter. […] Data are collected in duplicate determinations, averaged, and the percent inhibition of total specific binding is calculated. […]
A general note: Displacement assays read how much labelled ligand stays bound in the presence of the test substance.
For the compound `CC[C@H](NC(=O)c1cc(-c2ccccc2)nc2ccsc12)c1ccccc1` [Compound 2], the IC50 came to 80 nM. The same measure for `CC[C@H](NC(=O)c1cc(-c2ccccc2)nc2ncccc12)c1ccccc1` [Compound 3]: 100 nM; for `CC[C@H](NC(=O)c1cc(-c2ccccc2)nc2ccncc12)c1ccccc1` [Compound 1]: 50 nM.
